The source of these data is US20260284202A1, “CONJUGATES OF SAPONIN AND ANTISENSE OLIGONUCLEOTIDES FOR USE IN THE TREATMENT OF NEURODEGENERATIVE DISEASES” (priority 2023, published 2026).

Type in all cases: cell-based, murine
One data set has as its system Sod1 RNA transcripts. Description: Sod1 aberrant transcript / exon skip in Neuro-2a cells (PCR gel analysis). As for the experimental part:
Neuro-2a (murine neuroblastoma cells) were cultured in DMEM (PAN-Biotech GmbH) supplemented with 10% fetal bovine serum (FBS, PAN-Biotech GmbH) and Pen/Strep (PAN-Biotech GmbH). For experiments Neuro-2a cells were harvested, resuspended at 70.000 cells/mL and seeded at a density of 42.000 cells/well or 7.000 cells/well for the 24 or 96-well plates (Greiner BioOne). Cells were incubated overnight at 37° C. Before the start of treatment 120 μL or 20 μL media was added per well resp., followed by both saponin and/or PMO from a 10× concentrated stock solution in DPBS (PAN-Biotech GmbH). […] Plates were incubated for 72 hr at 37° C. before the cells of the 24 wp were harvested for gene expression analysis and the cell viability was assessed on the 96 wp.
Total RNA from cells was isolated using TRIzol™ Reagent (Thermo Scientific) according to the manufacturer's instruction. […] The gene expression was determined on 50 ng cDNA using the SapphireAmp Fast PCR Master Mix (Takara) with specific DNA primers, listed in Table A4. The PCR product was separated on a 2% agarose gel and fragments were analysed on the ChemiDoc XRS+ (BioRad) using Image Lab software (BioRad). For quantification of the % exon skip, the signal intensity of the aberrant transcript(s) (Mm Sod1 448 bp and 378 bp was divided over the total signal intensity of the skipped fragment(s)+full length fragment (Mm Sod1 545 bp)×100. […]

A further data set has as its system Sod1 transcript. Description: Remaining full length Sod1 transcript in Neuro-2a cells (qRT-PCR). The following applies: PMO without saponin component. As for the experimental part:
Neuro-2a cells (murine neuroblastoma cell line) were cultured in DMEM (PAN-Biotech GmbH) supplemented with 10% fetal bovine serum (FBS, PAN-Biotech GmbH) and Pen/Strep (PAN-Biotech GmbH). For experiments, Neuro-2a cells were harvested, resuspended at 60.000 cells/mL and seeded at a density of 36.000 cells/well or 6.000 cells/well for the 24 or 96-well plates (Greiner BioOne). Cells were incubated overnight at 37° C. Before the start of treatment, either 210 μL or 35 μL media was added per well resp., followed by the compounds from a 10× concentrated stock solution in DPBS (PAN-Biotech GmbH). […] Plates were incubated for 72 hr at 37° C. before the cells of the 24 wp were harvested for gene expression analysis or exon skip/aberrant transcript analysis and the cell viability was assessed on the 96 wp.
Total RNA from cells was isolated using TRIzol™ Reagent (Thermo Scientific) according to the manufacturer's instruction. […] Gene expression levels of the gene of interest (GOI) and levels of specific housekeeping genes were determined using quantitative real-time PCR assays (qRT-PCR) using iTaq™ Universal SYBR® Green Supermix (BioRad) and the LightCycler 480 II (Roche Diagnostics) with specific DNA primers, listed in Table A6. […] Results are expressed as % relative GOI expression levels after normalization to DPBS treated control cells.

Another data set relates to Malat1 mRNA. As to the kind of experiment: Malat1 mRNA knockdown in Neuro-2a cells (qRT-PCR). The following applies: for Malat1 RNA still measurable: 20.000 nM Malat1 ASO alone or co-administered with 1 μM of the named molecule; for co-administration enhancement effect on Malat1 ASO efficacy: named molecule at 1 μM with titrated Malat1 ASO; for enhancing effect on Malat1 mRNA reduction in co-administration: named molecule titrated with fixed 200 nM Malat1 ASO. As for the experimental part:
Neuro-2a (murine neuroblastoma cells) were cultured in DMEM (PAN-Biotech GmbH) supplemented with 10% fetal bovine serum (FBS, PAN-Biotech GmbH) and Pen/Strep (PAN-Biotech GmbH). For experiments, Neuro-2a cells were harvested, resuspended at 60.000 cells/mL and seeded at a density of 36.000 cells/well or 6.000 cells/well for the 24- or 96-well plates (Greiner BioOne). Cells were incubated overnight at 37° C. Before the start of treatment, 210 µL or 35 μL medium was added per well, respectively, followed by the conjugates from a 10× concentrated stock solution in DPBS (PAN-Biotech GmbH). Plates were incubated for 72 hr at 37° C. before the cells of the 24-well plates were harvested for gene expression analysis and the cell viability was assessed on the 96-well plates.
(§1) Total RNA from cells was isolated using TRIzol™ Reagent (Thermo Scientific) according to the manufacturer's instruction. Conversion into cDNA was performed using iScript™ cDNA Synthesis Kit (BioRad) using standard protocols. Gene expression levels of the gene of interest (GOI) and levels of specific housekeeping genes were determined using quantitative real-time PCR assays (qRT-PCR) using iTaq™ Universal SYBR® Green Supermix (BioRad) and the Light Cycler 480 II (Roche Diagnostics) with specific DNA primers, listed in Table A3. Each analysis reaction was performed in triplicate. Analysis was done by the ΔCt method to determine GOI expression relative to 2 specific housekeeping control mRNAs. Results are expressed as % relative GOI expression levels after normalization to DPBS treated control cells.
Neuro-2a cells (murine neuroblastoma cell line) were cultured in DMEM (PAN-Biotech GmbH) supplemented with 10% fetal bovine serum (FBS, PAN-Biotech GmbH) and Pen/Strep (PAN-Biotech GmbH). For experiments, Neuro-2a cells were harvested, resuspended at 60.000 cells/mL and seeded at a density of 36.000 cells/well or 6.000 cells/well for the 24 or 96-well plates (Greiner BioOne). Cells were incubated overnight at 37° C. Before the start of treatment, either 210 μL or 35 μL media was added per well resp., followed by the compounds from a 10× concentrated stock solution in DPBS (PAN-Biotech GmbH). In the control wells, or when only one compound was applied in treatment, additional DPBS was added so that the final volume per well was 900 µL or 150 μL for the 24 or 96-well plates (wp), respectively. Plates were incubated for 72 hr at 37° C. before the cells of the 24 wp were harvested for gene expression analysis or exon skip/aberrant transcript analysis and the cell viability was assessed on the 96 wp.
as §1, with “LightCycler” for “Light Cycler”, “A6.” for “A3.”

On to “SOD1 PMO: PMO targeting murine Sod1, SEQ ID: 20, GCCAGCCTAGGACCTACCTTGTGTA (all phosphorodiamidate morpholino (PMO))”, for which the “induction of aberrant Sod1 transcripts” value in the data set on Sod1 RNA transcripts (PMO alone, up to 50 μM PMO (FIG. 4)) is “did not induce any aberrant Sod1 transcripts”. For the same compound, in the data set with Sod1 RNA transcripts (without saponin component (FIG. 18C, 18D)), the “activity (aberrant transcript induction, nonsense mediated mRNA decay)” value was “did not show any activity at any of the concentrations tested”. In addition, in the data set on Sod1 transcript, the “reduction of full length Sod1 transcript” value is listed as “not able to reduce transcript”.
Turning to `C[C@@H]1CC[C@@]2(OC1)O[C@H]1[C@@H](O)[C@H]3[C@@H]4CC[C@H]5C[C@@H](O[C@@H]6O[C@H](CO)[C@H](O[C@@H]7O[C@H](CO)[C@@H](O)[C@H](O[C@@H]8OC[C@@H](O)[C@H](O)[C@H]8O)[C@H]7O[C@@H]7O[C@H](CO)[C@H](O)[C@H](O[C@@H]8O[C@H](CO)[C@@H](O)[C@H](O)[C@H]8O)[C@H]7O)[C@H](O)[C@H]6O)[C@H](O)C[C@]5(C)[C@H]4CC[C@]3(C)[C@H]1[C@@H]2C` [digitonin], the “reduction in Malat1 mRNA” value with Malat1 mRNA (10.000 nM of named molecule with 200 nM Malat1 ASO, 4320 min) is “approximately 70%”. In the data set with Malat1 mRNA (4320 min), the “Malat1 RNA still measurable” value is listed as 10-15%. The “co-administration enhancement effect on Malat1 ASO efficacy” value (“co-administration enhancement effect” for short) in the data set on Malat1 mRNA is “not observed”.
With `CC(=O)OC1C(C)OC(OC2C(C)OC(OC(=O)[C@]34CCC(C)(C)CC3C3=CCC5[C@@]6(C)CC[C@H](OC7OC(C(=O)O)C(O)C(OC8OCC(O)C(O)C8O)C7OC7OC(CO)C(O)C(O)C7O)[C@@](C)(/C=N/NC(=O)CCCCCN7C(=O)CC(SCCO)C7=O)C6CC[C@@]5(C)[C@]3(C)C[C@H]4O)C(OC3OC(C)C(OC4OCC(O)C(OC5OC(CO)C(O)C(O)C5O)C4O)C(O)C3O)C2O)C(O)C1OC1OCC(O)C(O)C1O` (stereo partly drawn) [SO1861-AH-Block], in the data set with Malat1 mRNA, the “enhancing effect on Malat1 mRNA reduction in co-administration” value was “efficacious”. The “concentration above which complete loss of Malat1 mRNA expression is achieved” value in the data set with Malat1 mRNA (titrated with fixed 200 nM Malat1 ASO) is given as “above 3200 nM”.
For the compound `C[C@H]1CC[C@]2(NC1)O[C@H]1C[C@H]3[C@@H]4CC[C@H]5C[C@@H](O[C@@H]6O[C@H](CO)[C@H](O[C@@H]7O[C@H](CO)[C@@H](O)[C@H](O[C@@H]8OC[C@@H](O)[C@H](O)[C@H]8O)[C@H]7O[C@@H]7O[C@H](CO)[C@@H](O)[C@H](O)[C@H]7O)[C@H](O)[C@H]6O)CC[C@]5(C)[C@H]4CC[C@]3(C)[C@H]1[C@@H]2C` [tomatine], the “Malat1 RNA still measurable” value in the data set on Malat1 mRNA (4320 min) was 10-15%. Further, in the data set with Malat1 mRNA, the “co-administration enhancement effect” value is recorded as “not observed” and the “enhancing effect on Malat1 mRNA reduction in co-administration” value was “no enhancing effect”.
Take `CC1(C)[C@@H](O[C@H]2O[C@H](C(=O)O)[C@@H](O)[C@H](O)[C@H]2O[C@@H]2O[C@H](C(=O)O)[C@@H](O)[C@H](O)[C@H]2O)CC[C@]2(C)[C@H]3C(=O)C=C4[C@@H]5C[C@@](C)(C(=O)O)CC[C@]5(C)CC[C@@]4(C)[C@]3(C)CC[C@@H]12` [glycyrrhizin]: the “enhancing effect on Malat1 mRNA reduction in co-administration” value in the data set with Malat1 mRNA was “no enhancing effect”.
For the compound `C[C@H]1O[C@@H](O[C@H]2[C@@H](O)C[C@H](O[C@H]3[C@@H](O)C[C@H](O[C@H]4CC[C@@]5(C)[C@H](CC[C@@H]6[C@@H]5C[C@@H](O)[C@]5(C)[C@@H](C7=CC(=O)OC7)CC[C@]65O)C4)O[C@@H]3C)O[C@@H]2C)C[C@H](O)[C@@H]1O` [digoxin], the “Malat1 RNA still measurable” value in the data set with Malat1 mRNA (4320 min) is 10-15%. Moreover, in the data set with Malat1 mRNA, the “co-administration enhancement effect” value is “not observed” and the “enhancing effect on Malat1 mRNA reduction in co-administration” value was “no enhancing effect”.
